Test results taken from patent US20230295197A1, “STAT5 and STAT6 Degraders and Uses Thereof” (REGENTS OF THE UNIVERSITY OF MICHICAN, priority 2022, published 2023).
Like-named read-outs stand apart in the source and are kept apart here.

Tests used:
STAT6 = biological target: T1, STAT6 (Homo sapiens, UniProt P42226); assay: Immunoblotting (Western blot) analysis of STAT6 degradation efficiency of degraders in treated cells; format: cell-based
T1 construct: endogenous in cells; host or cells: MOLM-16, KU-812, SKNO1, MB231, L1236
T1 sequence (P42226 1-847): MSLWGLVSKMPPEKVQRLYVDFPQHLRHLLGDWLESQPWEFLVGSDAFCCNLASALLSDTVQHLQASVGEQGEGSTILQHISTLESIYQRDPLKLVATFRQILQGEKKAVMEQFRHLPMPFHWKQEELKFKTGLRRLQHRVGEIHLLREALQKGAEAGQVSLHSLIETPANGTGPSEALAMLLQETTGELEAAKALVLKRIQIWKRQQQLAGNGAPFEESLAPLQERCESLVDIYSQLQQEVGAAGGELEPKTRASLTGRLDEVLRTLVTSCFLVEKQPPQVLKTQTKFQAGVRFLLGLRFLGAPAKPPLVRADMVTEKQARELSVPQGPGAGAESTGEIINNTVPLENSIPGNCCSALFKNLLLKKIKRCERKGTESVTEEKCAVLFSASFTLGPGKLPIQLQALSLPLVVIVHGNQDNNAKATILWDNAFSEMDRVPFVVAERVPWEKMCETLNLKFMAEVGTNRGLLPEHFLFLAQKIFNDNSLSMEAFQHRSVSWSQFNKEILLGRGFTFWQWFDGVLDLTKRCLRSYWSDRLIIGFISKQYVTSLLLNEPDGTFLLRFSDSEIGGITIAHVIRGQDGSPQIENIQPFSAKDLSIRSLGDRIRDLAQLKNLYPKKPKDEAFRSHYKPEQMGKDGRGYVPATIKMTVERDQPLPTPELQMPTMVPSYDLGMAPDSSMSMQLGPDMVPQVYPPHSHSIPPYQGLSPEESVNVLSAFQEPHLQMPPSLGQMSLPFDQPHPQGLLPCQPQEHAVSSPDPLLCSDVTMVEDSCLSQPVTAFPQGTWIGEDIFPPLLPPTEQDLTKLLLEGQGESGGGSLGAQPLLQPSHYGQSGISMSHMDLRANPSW
In short: (§1)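 Degradation read by quantitative near-infrared Western blot: equal protein loads (20-40 μg) from compound-treated versus untreated cells, probed overnight at 4° C. for STAT5 or STAT6 with GAPDH reference. Compound concentrations and exposure times as indicated; cells grown in medium with 10% FBS at 37° C.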

STAT5 = assay: Immunoblotting (Western blot) analysis of STAT5 degradation efficiency of degraders in treated cells; format: cell-based
In short: as §1

[1] = MOLM-16 cells, numeric bound, read-out: DC50 S6 MOLM-16
[2] = MOLM-16 cells, numeric bound, read-out: DC50 S5 MOLM-16
[3] = MB231 cells, read-out: DC50 S6 MB231
[4] = MOLM-16 cells, class symbols, read-out: DC50 S6 MOLM-16
[5] = KU-812 cells, read-out: DC50 S5 KU-812
[6] = MOLM-16 cells, class symbols, read-out: DC50 S5 MOLM-16
[7] = SKNO1 cells, read-out: DC50 S5 SKNO1

CC(C)(C)[C@H](NC(=O)c1cc2cc(C(F)(F)P(=O)(O)O)ccc2s1)C(=O)N1CCC[C@H]1C(=O)N1C[C@@H](Oc2ccccc2)C[C@H]1C(=O)NCCCC#Cc1cccc2c1CN(C1CCC(=O)NC1=O)C2=O (stereo partly drawn) [Compound 658, ((2-(((2S)-1-((2S)-2-((2S,4S)-2-((5-(2-(2,6-dioxopiperidin-3-yl)-1-oxoisoindolin-4-yl)pent-4-yn-1-yl)carbamoyl)-4-phenoxypyrrolidine-1-carbonyl)pyrrolidin-1-yl)-3,3-dimethyl-1-oxobutan-2-yl)carbamoyl)benzo[b]thiophen-5-yl)difluoromethyl)phosphonic acid]
DC50 (STAT6; [1]): > 0.3 µM | DC50 (STAT5; [2]): > 0.3 µM

CC(C)(C)[C@H](NC(=O)c1cc2cc(C(F)(F)P(=O)(O)O)ccc2s1)C(=O)N1CCC[C@H]1C(=O)N(CCC(=O)NCCCCCC#Cc1cccc2c1CN(C1CCC(=O)NC1=O)C2=O)c1ccc(Br)cc1 (stereo partly drawn) [Compound 405, ((2-(((2S)-1-((2S)-2-((4-bromophenyl)(3-((7-(2-(2,6-dioxopiperidin-3-yl)-1-oxoisoindolin-4-yl)hept-6-yn-1-yl)amino)-3-oxopropyl)carbamoyl)pyrrolidin-1-yl)-3,3-dimethyl-1-oxobutan-2-yl)carbamoyl)benzo[b]thiophen-5-yl)difluoromethyl)phosphonic acid]
DC50 (STAT6; [3]): > 10 µM | DC50 (STAT6; [4]): > 10 µM | DC50 (STAT5; [5]): 0.1 to 1 µM | DC50 (STAT5; [6]): 0.1 to 1 µM | DC50 (STAT5; [7]): 0.1 to 1 µM

CC(C)(C)[C@H](NC(=O)c1cc2cc(C(F)(F)P(=O)(O)O)ccc2s1)C(=O)N1CCC[C@H]1C(=O)N(CCC(=O)NCCCC#Cc1cccc2c1CN(C1CCC(=O)NC1=O)C2=O)c1ccc2scnc2c1 (stereo partly drawn) [Compound 668, ((2-(((2S)-1-((2S)-2-(benzo[d]thiazol-5-yl(3-((5-(2-(2,6-dioxopiperidin-3-yl)-1-oxoisoindolin-4-yl)pent-4-yn-1-yl)amino)-3-oxopropyl)carbamoyl)pyrrolidin-1-yl)-3,3-dimethyl-1-oxobutan-2-yl)carbamoyl)benzo[b]thiophen-5-yl)difluoromethyl)phosphonic acid]
DC50 (STAT6; [1]): > 0.3 µM | DC50 (STAT5; [5]): 0.1 to 1 µM | DC50 (STAT5; [6]): < 0.1 µM | DC50 (STAT5; [7]): 0.1 to 1 µM

CC(C)(C)[C@H](NC(=O)c1cc2cc(C(F)(F)P(=O)(O)O)ccc2s1)C(=O)N1CCC[C@H]1C(=O)N(CCC(=O)N1CC(CC#Cc2cccc3c2CN(C2CCC(=O)NC2=O)C3=O)C1)c1ccc(Br)cc1 (stereo partly drawn) [Compound 667, ((2-(((2S)-1-((2S)-2-((4-bromophenyl)(3-(3-(3-(2-(2,6-dioxopiperidin-3-yl)-1-oxoisoindolin-4-yl)prop-2-yn-1-yl)azetidin-1-yl)-3-oxopropyl)carbamoyl)pyrrolidin-1-yl)-3,3-dimethyl-1-oxobutan-2-yl)carbamoyl)benzo[b]thiophen-5-yl)difluoromethyl)phosphonic acid]
DC50 (STAT6; [1]): > 0.3 µM | DC50 (STAT5; [5]): > 10 µM | DC50 (STAT5; [2]): > 0.3 µM | DC50 (STAT5; [7]): > 10 µM

CC(C)(C)[C@H](NC(=O)c1cc2cc(C(F)(F)P(=O)(O)O)ccc2s1)C(=O)N1CCC[C@H]1C(=O)N(CCC(=O)NCCCC#Cc1cccc2c1CN(C1CCC(=O)NC1=O)C2=O)c1ccc(S(C)(=O)=O)cc1 (stereo partly drawn) [Compound 654, ((2-(((2S)-1-((2S)-2-((3-((5-(2-(2,6-dioxopiperidin-3-yl)-1-oxoisoindolin-4-yl)pent-4-yn-1-yl)amino)-3-oxopropyl)(4-(methylsulfonyl)phenyl)carbamoyl)pyrrolidin-1-yl)-3,3-dimethyl-1-oxobutan-2-yl)carbamoyl)benzo[b]thiophen-5-yl)difluoromethyl)phosphonic acid]
DC50 (STAT6; [1]): > 0.3 µM | DC50 (STAT5; [2]): > 0.3 µM | DC50 (STAT5; [7]): > 10 µM

CN(CCCC#Cc1cccc2c1CN(C1CCC(=O)NC1=O)C2=O)C(=O)CCN(C(=O)[C@@H]1CCCN1C(=O)[C@@H](NC(=O)c1cc2cc(C(F)(F)P(=O)(O)OCOC(=O)C(C)(C)C)ccc2s1)C(C)(C)C)c1ccc2ccoc2c1 (stereo partly drawn) [Compound 674, ((((2-(((2S)-1-((2S)-2-(benzofuran-6-yl(3-((5-(2-(2,6-dioxopiperidin-3-yl)-1-oxoisoindolin-4-yl)pent-4-yn-1-yl)(methyl)amino)-3-oxopropyl)carbamoyl)pyrrolidin-1-yl)-3,3-dimethyl-1-oxobutan-2-yl)carbamoyl)benzo[b]thiophen-5-yl)difluoromethyl)(hydroxy)phosphoryl)oxy)methyl pivalate]
DC50 (STAT6; [1]): > 0.3 µM | DC50 (STAT5; [6]): < 0.1 µM

CN(CCCC#Cc1cccc2c1CN(C1CCC(=O)NC1=O)C2=O)C(=O)CCN(C(=O)[C@@H]1CCCN1C(=O)[C@@H](NC(=O)c1cc2cc(C(F)(F)P(=O)(O)O)ccc2s1)C(C)(C)C)c1ccc2ccccc2c1 (stereo partly drawn) [Compound 680, ((2-(((2S)-1-((2S)-2-((3-((5-(2-(2,6-dioxopiperidin-3-yl)-1-oxoisoindolin-4-yl)pent-4-yn-1-yl)(methyl)amino)-3-oxopropyl)(naphthalen-2-yl)carbamoyl)pyrrolidin-1-yl)-3,3-dimethyl-1-oxobutan-2-yl)carbamoyl)benzo[b]thiophen-5-yl)difluoromethyl)phosphonic acid]
DC50 (STAT6; [4]): > 10 µM | DC50 (STAT5; [5]): 0.1 to 1 µM | DC50 (STAT5; [6]): < 0.1 µM | DC50 (STAT5; [7]): 0.1 to 1 µM

CC(C)(C)C(=O)OCOP(=O)(O)C(F)(F)c1ccc2sc(C(=O)N[C@H](C(=O)N3CCC[C@H]3C(=O)N(CCC(=O)NCCCC#Cc3cccc4c3CN(C3CCC(=O)NC3=O)C4=O)c3ccc(Br)cc3)C(C)(C)C)cc2c1 (stereo partly drawn) [Compound 653, ((((2-(((2S)-1-((2S)-2-((4-bromophenyl)(3-((5-(2-(2,6-dioxopiperidin-3-yl)-1-oxoisoindolin-4-yl)pent-4-yn-1-yl)amino)-3-oxopropyl)carbamoyl)pyrrolidin-1-yl)-3,3-dimethyl-1-oxobutan-2-yl)carbamoyl)benzo[b]thiophen-5-yl)difluoromethyl)(hydroxy)phosphoryl)oxy)methyl pivalate]
DC50 (STAT6; [4]): < 0.1 µM | DC50 (STAT5; [2]): > 0.3 µM

CN(CCCC#Cc1cccc2c1CN(C1CCC(=O)NC1=O)C2=O)C(=O)CCN(C(=O)[C@@H]1CCCN1C(=O)[C@@H](NC(=O)c1cc2cc(C(F)(F)P(=O)(O)OCOC(=O)C(C)(C)C)ccc2s1)C(C)(C)C)c1ccc2ccccc2c1 (stereo partly drawn) [Compound 673, ((((2-(((2S)-1-((2S)-2-((3-((5-(2-(2,6-dioxopiperidin-3-yl)-1-oxoisoindolin-4-yl)pent-4-yn-1-yl)(methyl)amino)-3-oxopropyl)(naphthalen-2-yl)carbamoyl)pyrrolidin-1-yl)-3,3-dimethyl-1-oxobutan-2-yl)carbamoyl)benzo[b]thiophen-5-yl)difluoromethyl)(hydroxy)phosphoryl)oxy)methyl pivalate]
DC50 (STAT6; [1]): > 0.3 µM | DC50 (STAT5; [6]): < 0.1 µM

CN(C(=O)[C@@H]1C[C@@H](OCC(=O)NCCCCCCC#Cc2cccc3c2CN(C2CCC(=O)NC2=O)C3=O)CN1C(=O)[C@@H](NC(=O)c1cc2cc(C(F)(F)P(=O)(O)O)ccc2s1)C(C)(C)C)c1ccc(Br)cc1 (stereo partly drawn) [Compound 413, ((2-(((2S)-1-((2S,4R)-2-((4-bromophenyl)(methyl)carbamoyl)-4-(2-((8-(2-(2,6-dioxopiperidin-3-yl)-1-oxoisoindolin-4-yl)oct-7-yn-1-yl)amino)-2-oxoethoxy)pyrrolidin-1-yl)-3,3-dimethyl-1-oxobutan-2-yl)carbamoyl)benzo[b]thiophen-5-yl)difluoromethyl)phosphonic acid]
DC50 (STAT6; L1236 cells, read-out: DC50 S6 L1236): > 10 µM | DC50 (STAT6; [3]): > 10 µM | DC50 (STAT5; [7]): > 10 µM

CC(C)(C)[C@H](NC(=O)c1cc2cc(C(F)(F)P(=O)(O)O)ccc2s1)C(=O)N1C[C@H](NC(=O)CCCCCC#Cc2ccc3c(c2)CN(C2CCC(=O)NC2=O)C3=O)C[C@H]1C(=O)Nc1ncc(-c2ccccc2)s1 (stereo partly drawn) [Compound 568, ((2-(((2S)-1-((2S,4R)-4-(8-(2-(2,6-dioxopiperidin-3-yl)-1-oxoisoindolin-5-yl)oct-7-ynamido)-2-((5-phenylthiazol-2-yl)carbamoyl)pyrrolidin-1-yl)-3,3-dimethyl-1-oxobutan-2-yl)carbamoyl)benzo[b]thiophen-5-yl)difluoromethyl)phosphonic acid]
DC50 (STAT6; [1]): > 0.3 µM | DC50 (STAT5; [2]): > 0.3 µM
